This is an account of results in patent US20250195520A1, “COMBINATION THERAPY USING A PTPN11 INHIBITOR AND AN EGFR INHIBITOR” (NAVIRE PHARMA, INC., priority 2021, published 2025).

“Also recorded” adds a separate entry of the source.

The test system of assay [1] is DUSP6 mRNA in HCC827-ER1 tumors. The experiment in a line: In vivo pharmacodynamic assay, Taqman qRT-PCR of DUSP6 in HCC827-ER1 xenograft tumors. Set-up: species or system mouse. The method, then: In vivo modeling, treatment and data analysis. […] Dosing started ˜3 weeks after the subcutaneous implantation of the tumor cells. Dosing volume was 5 mL/kg for each compound, and was adjusted based on individual mouse weight. Dosing and sample harvesting followed the schedule below. There was a 6-hour interval between the morning dose and the afternoon dose, and tumor/plasma samples were harvested at three timepoints during the 24-hour dosing cycle.
In general terms: Quantitative PCR measures a nucleic acid by following its amplification.

Assay [2] deals with NCI-H1975 (C797S+) tumors. The assay can be described thus: NCI-H1975 (C797S+) tumor model, tumor volume. The format is in vivo, mouse.
Assay [3] has as its target T1, PTPN11-E76K mutant enzyme (Homo sapiens, UniProt Q06124, E76K).
T1 sequence (Q06124 1-593 E76K): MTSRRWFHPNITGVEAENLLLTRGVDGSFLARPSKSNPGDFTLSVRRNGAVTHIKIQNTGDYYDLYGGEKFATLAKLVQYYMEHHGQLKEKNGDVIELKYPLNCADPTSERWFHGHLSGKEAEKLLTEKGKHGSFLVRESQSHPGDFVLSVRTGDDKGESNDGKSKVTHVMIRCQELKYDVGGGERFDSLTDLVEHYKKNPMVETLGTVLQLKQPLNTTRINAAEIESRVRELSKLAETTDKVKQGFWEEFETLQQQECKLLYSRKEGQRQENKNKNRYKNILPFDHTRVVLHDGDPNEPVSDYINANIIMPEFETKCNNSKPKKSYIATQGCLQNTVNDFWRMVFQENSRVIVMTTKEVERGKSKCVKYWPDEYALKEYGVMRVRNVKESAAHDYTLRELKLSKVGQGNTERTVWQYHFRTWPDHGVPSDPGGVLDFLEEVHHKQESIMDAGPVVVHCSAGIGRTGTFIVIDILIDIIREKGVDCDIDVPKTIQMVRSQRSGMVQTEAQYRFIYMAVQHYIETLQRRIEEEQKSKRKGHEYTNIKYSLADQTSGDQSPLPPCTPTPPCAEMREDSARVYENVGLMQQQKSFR
Conditions: e.g. PTPN11-E76K mutant enzyme; stated as 'in certain embodiments'; read-out: IC50 for inhibition of PTPN11; cited from earlier work.

Assay [4] has as its system HCC4006 cells. The experiment in a line: In vitro 3-day proliferation assay (CellTiter-Glo 2.0), HCC4006. The note with it: Homo sapiens, 72 h, HCC4006 parental cells. The format is cell-based. As to the method:
(§1) Cell lines. The HCC4006 cell line was purchased from ATCC. […] The cells were cultured in RPMI-1640 containing 4 mM glutamax (Thermo Fisher #72400-120)+10% fetal bovine serum (FBS, Sigma #F2442) in 37° C. tissue culture incubator with 5% CO2 (NUAIRE, NU-5510).
(§2) In vitro 3-day proliferation assay. HCC4006 or HCC4006-OsiR cells were plated in 96-well plates (Corning #3603) at 1,500 cells per well in 100 μL of media (RPMI-1640+10% FBS) and allowed to attach overnight. […] Final DMSO concentration was 0.1%. After 3 days of treatment, viable cell numbers were determined using CellTiter-Glo 2.0 cell viability assay (Promega #G9241).
(§3) CellTiter-Glo 2.0 cell viability assay. CellTiter-Glo 2.0 cell viability assay (Promega #G9241) was used to determine the relative viable cell number, following manufacturer's protocols. Briefly, 100 μL CellTiter-Glo reagent was added to each well in the 96-well plate. The plate was put on a VWR advanced 3500 orbital shaker (VWR #89032-096) at 100 rpm shaking for 5 min at room temperature, then incubated at room temperature for 15 min, protected from the light. Afterwards, luminescence was quantified using a PheraStar plate reader (BMG Labtech). The luminescence readings were normalized to the average of DMSO treated samples of each cell line, using Microsoft Excel. Data were plotted in GraphPad Prism 8.0. Non-linear fit was used to generate the dose response curve. […]
(In general: ATP-based viability assays read luminescence as a measure of living cells.)

Assay [5] has as its system HCC4006 cells. The assay can be described thus: In vitro clonogenic assay (crystal violet, Bliss score), HCC4006. The format is cell-based. The note with it: Homo sapiens, 336 h; HCC4006, 14-day clonogenic assay. The method, then: (§4) In vitro clonogenic assay. […] Compounds were prediluted in media at 4x the final concentration, and the final DMSO concentration was 0.2% in 1 mL of media per 24-well. After 12˜14 days of treatment, the plates were stained with crystal violet solution.
(§5) Crystal violet staining, quantification and Bliss score calculation. The 0.1% crystal violet staining solution was prepared by mixing 100 mL of 1% crystal violet solution (Sigma #V5265), 100 mL of 100% ethanol and 800 mL of ddH2O. […] After removal of DPBS, 0.5 mL of 0.1% crystal violet staining solution was added to each 24-well. The plates were incubated at room temperature for 30 min. The staining solution was removed from wells and discarded. Each well was then washed with 1 mL of ddH2O. Afterwards, the plates were dipped in a large bucket filled with tap water 2˜4 times until the supernatant became colorless. […]
(§6) The OD590 readings (multiplied by the dilution factor) were normalized to the average of DMSO treated samples, using Microsoft Excel. The Bliss expectation was calculated with the equation (A+B)−A×B/100, where A and B were the percentage growth inhibition induced by agents A and B at a given dose. Bliss score is the difference between the detected growth inhibition (%) caused by the combination of the two agents and the bliss expectation. […]

Assay [6] deals with HCC4006-OsiR cells. The assay can be described thus: In vitro 3-day proliferation assay (CellTiter-Glo 2.0), HCC4006-OsiR. The format is cell-based, human. As to the method:
as §1, §2, §3

For assay [7], the system named is HCC4006-OsiR cells. The assay can be described thus: In vitro clonogenic assay (crystal violet, Bliss score), HCC4006-OsiR. The format is cell-based, human. Conditions: 14-day clonogenic assay. As to the method: as §4, §5, §6

Take `Cc1c(N2CCC3(CC2)CO[C@@H](C)[C@H]3N)nc(C)n(-c2cccc(Cl)c2Cl)c1=O` (atropisomer, axis not shown; (Ra)) [Formula (10b), 6-((3S,4S)-4-amino-3-methyl-2-oxa-8-azaspiro[4.5]decan-8-yl)-3-(Ra)-(2,3-dichlorophenyl)-2,5-dimethylpyrimidin-4 (3H)-one]: the “suppression of DUSP6 mRNA levels” value in assay [1] (6-hour and 8-hour after formula (10b) dosing, 100 mg/kg) is on record as “over 90%”; in assay [1] (across the three timepoints (best suppression), osimertinib 5 mg/kg, formula (10b) 100 mg/kg) it was “suppresses DUSP6 mRNA levels”. Further, in assay [2], the “tumor growth (tumor volume)” value is “suppresses the growth; also recorded: robust tumor regression”. In addition, in assay [3], the IC50 is no more than 50 nM.

Consider `C=CC(=O)Nc1cc(Nc2nccc(-c3cn(C)c4ccccc34)n2)c(OC)cc1N(C)CCN(C)C` [Osimertinib], for which the 50% inhibitory concentration (IC50) in assay [4] is 27 ± 7.9 nM; in assay [5], 12.2 ± 2.5 nM; in assay [6] (Homo sapiens, 72 h, HCC4006-OsiR cells, 3-day proliferation assay) it was greater than 1000 nM; in assay [7] (Homo sapiens, 336 h, HCC4006-OsiR), 257 ± 241 nM. Also, the anti-proliferative effect entry in assay [6] (1,000 nM (the highest concentration tested), HCC4006-OsiR, 3-day) is recorded as “no anti-proliferative effect”. Moreover, the “shift in IC50, HCC4006-OsiR compared with HCC4006 parental cells” value in assay [7] was found to be 20 fold.

What is called IC50 is the concentration that gives 50% inhibition.
